Test results: PubChem BioAssay (NCI)
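Tested at 5 concentrations; 48 h exposure; 96-well plates; endpoints linearly interpolated, else capped at highest concentration. GI50 is the concentration that inhibits growth by half. TGI denotes the concentration required for complete inhibition of growth.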

What was measured:
Assay in all cases: NCI-60 cell line screen, 48 h
A498 renal = system: A498 renal
SNB-75 CNS = system: SNB-75 CNS
SK-MEL-5 melanoma = system: SK-MEL-5 melanoma
SR leukemia = system: SR leukemia
SF-295 CNS = system: SF-295 CNS
NCI/ADR-RES ovarian = system: NCI/ADR-RES ovarian
U251 CNS = system: U251 CNS
SNB-19 CNS = system: SNB-19 CNS
OVCAR-5 ovarian = system: OVCAR-5 ovarian
HL-60(TB) leukemia = system: HL-60(TB) leukemia

| Compound | TGI (A498 renal) [µM] | TGI (SNB-75 CNS) [µM] | TGI (SK-MEL-5 melanoma) [µM] | TGI (SR leukemia) [µM] | TGI (SF-295 CNS) [µM] | TGI (NCI/ADR-RES ovarian) [µM] | TGI (U251 CNS) [µM] | TGI (SNB-19 CNS) [µM] | TGI (OVCAR-5 ovarian) [µM] | TGI (HL-60(TB) leukemia) [µM] | GI50 (A498 renal) [µM] | GI50 (SNB-75 CNS) [µM] | GI50 (SK-MEL-5 melanoma) [µM] | GI50 (SR leukemia) [µM] | GI50 (SF-295 CNS) [µM] | GI50 (NCI/ADR-RES ovarian) [µM] | GI50 (U251 CNS) [µM] | GI50 (SNB-19 CNS) [µM] | GI50 (OVCAR-5 ovarian) [µM] | GI50 (HL-60(TB) leukemia) [µM] |
| --- | --- | --- | --- | --- | --- | --- | --- | --- | --- | --- | --- | --- | --- | --- | --- | --- | --- | --- | --- | --- |
| COc1ccc(CCN2COc3ccc4ccc(=O)oc4c3C2)cc1OC | > 100 | > 100 | > 100 | 50.5 | > 100 | > 100 | > 100 | > 100 | > 100 | 41.7 | – | – | – | – | – | – | – | – | – | – |
| CS(=O)(=O)c1ccc(-c2[nH]c3ccc(F)cc3c2/C=N/NC(N)=S)cc1 | 5.18 | > 100 | 11.9 | 32.8 | 13.1 | > 100 | > 100 | > 100 | > 100 | 5.05 | 0.347 | 1.85 | 0.634 | 0.329 | 0.899 | 1.17 | 0.777 | 1.31 | 3.74 | 0.396 |
| CC#CC(=O)N[C@H]1CCCN(c2c(F)cc(C(N)=O)c3[nH]c(C)c(C)c23)C1 | 26.6 | 21.3 | 31.9 | > 100 | 74.5 | 49.6 | 36.3 | 28.6 | 88.5 | 46 | 12 | 7.66 | 17.9 | 17.6 | 27.3 | 19.9 | 17.3 | 15.3 | 23 | 21.4 |
| CN1CCN(CCCOc2ccc3nc(Nc4ccc(C(F)(F)F)c(Cl)c4)ccc3c2)CC1 | 2.54 | 2.94 | 3.18 | 4.01 | 3.2 | 5.22 | 2.98 | 3.6 | 3.75 | 4.01 | 0.932 | 0.903 | 1.7 | 1.17 | 1.67 | 1.88 | 1.46 | 1.74 | 1.8 | 1.94 |
| O=C(O)C1CCCCC1C(=O)Nc1nc2ccccc2[nH]1 (centres undefined) | > 100 | > 100 | > 100 | > 100 | > 100 | > 100 | > 100 | > 100 | > 100 | – | – | – | – | – | – | – | – | – | – | – |
| O=C(O)CP(=O)(c1ccccc1)c1ccccc1.O=C(O)CP(=O)(c1ccccc1)c1ccccc1.[Cd] | 39.8 | 32.4 | 13.3 | 31.8 | > 100 | 52.2 | 28.9 | > 100 | 30.6 | 60.7 | 19.9 | 16 | 2.19 | 13.6 | 30.5 | 21.9 | 14.3 | 48.1 | 16 | 15.9 |
| O=C1CCCC(=O)C1C(=O)c1ccc(C(F)(F)F)cc1[N+](=O)[O-] | > 100 | > 100 | > 100 | > 100 | > 100 | > 100 | > 100 | > 100 | > 100 | > 100 | > 100 | > 100 | > 100 | > 100 | > 100 | > 100 | > 100 | > 100 | > 100 | > 100 |
